Measurements published in patent US10258561B2, “Cosmetic composition containing a brown alga extract, a yeast extract and ascorbic acid” (LVMH RECHERCHE, priority 2013, dated 2019).

System: synthesis of procollagen I by normal human fibroblasts (NHF)
Test: Synthesis of type I procollagen by aged normal human fibroblasts, ELISA on culture supernatants
Type: cell-based
Details: active agents alone
Text: The influence of the extracts constituting the combination of the invention on the synthesis of procollagen I by normal human fibroblasts (NHF) is studied. Procollagen is a precursor form of collagen secreted in the extracellular medium where the ends are cut in order to result in the collagen subunit. The combining of these collagen molecules will subsequently create the collagen fibers. 1. Cell Model • Type: Normal human fibroblasts (NHF), aged by passages in culture (20th passage). • Culturing conditions: 37° C., 5% CO2. • Culture medium: (Invitrogen 21090-22) supplemented with L-glutamine 2 mM, penicillin 50 UI/ml-streptomycin 50 μg/ml, 10% FCS (Biowest S1810). • Test medium: […]. The active agents are dissolved in the culture medium at the concentration specified in the following table. The synthesis of type I procollagen by these cells was evaluated by the ELISA technique from the culture supernatants of aged fibroblasts. The NHFs are cultured in a 96-well microplate at the rate of 7500 cells/well for 24 hours. At 80% confluence, the medium is replaced with the test medium containing the active agents to be tested or the references. The cells are incubated for 72 hours. The culture supernatants are subsequently recovered and stored at −20° C. while awaiting assaying. […] The amounts of procollagen I are expressed as ng/mg of protein. […]

**Q.** With O=C1O[C@H]([C@@H](O)CO)C(O)=C1O [Vitamin C, Ascorbic acid] as the compound, how does the “Procoll. I (ng/mg of prot)” value (aged NHF (20th passage), 72 hours, untreated control 1439 ± 161) read?
**A.** 2431 ± 55 ng/mg of prot

**Q.** What about the Variation (vs untreated control) of the same compound?
**A.** +67%
